Laboratory results reported in PMC10070963 (Frontiers in Microbiology, 2023).

B1: LIV-I branched chain amino acid transport system (Escherichia coli K-12) (protein)
chain: EDIKVAVVGAMSGPVAQYGDQEFTGAEQAVADINAKGGIKGNKLQIVKYDDACDPKQAVAVANKVVNDGIKYVIGHLCSSSTQPASDIYEDEGILMITPAATAPELTARGYQLILRTTGLDSDQGPTAAKYILEKVKPQRIAIVHDKQQYGEGLARAVQDGLKKGNANVVFFDGITAGEKDFSTLVARLKKENIDFVYYGGYHPEMGQILRQARAAGLKTQFMGPEGVANVSLSNIAGESAEGLLVTKPKNYDQVPANKPIVDAIKAKKQDPSGAFVWTTYAALQSLQAGLNQSDDPAEIAKYLKANSVDTVMGPLTWDEKGDLKGFEFGVFDWHANGTATDAK
notes: whole-cell uptake, ABC transporter

How the values were obtained:
SdaC = biological target: T1, SdaC (Escherichia coli, UniProt P0AAD6); experiment: radiolabelled uptake by whole cells, sdaC+ versus sdaC deletion; format: cell-based; settings: M9 medium, 0.2% glucose, 37 °C; 100 μM L-serine; strain B2394 versus B2429; labelled compound (14C)
T1 construct: full-length native chromosomal sdaC, no tag; whole-cell uptake in strain lacking the other carriers, compared with its sdaC deletion B2429
T1 sequence (P0AAD6 whole entry): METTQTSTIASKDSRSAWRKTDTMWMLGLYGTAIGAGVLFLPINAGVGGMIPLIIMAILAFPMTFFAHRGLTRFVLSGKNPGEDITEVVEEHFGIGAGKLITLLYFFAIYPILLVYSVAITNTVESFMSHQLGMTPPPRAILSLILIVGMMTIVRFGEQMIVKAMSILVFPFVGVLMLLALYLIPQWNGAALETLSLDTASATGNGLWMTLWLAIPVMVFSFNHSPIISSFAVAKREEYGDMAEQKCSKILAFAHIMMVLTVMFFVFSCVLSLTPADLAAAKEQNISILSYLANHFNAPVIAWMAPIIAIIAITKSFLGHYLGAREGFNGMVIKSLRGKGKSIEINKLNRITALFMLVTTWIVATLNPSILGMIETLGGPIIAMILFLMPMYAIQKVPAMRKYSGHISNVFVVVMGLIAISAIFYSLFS

[1] = substrate: C[C@@H](O)[C@H](N)C(=O)O; experiment: radiolabelled uptake by whole cells, initial velocity, Lineweaver-Burk; format: cell-based, Escherichia coli; settings: M9 medium, 0.2% glucose, 37 °C, strain B2394[pMW-liv] overexpressing LIV-I, labelled compound (14C)

Row | Molecule | radiolabelled uptake by whole cells, sdaC+ versus sdaC deletion (SdaC) | Km [1]
1 | N[C@@H](CO)C(=O)O [L-serine] | serine transport activity of the B2394 strain possessing SdaC as the sole transporter | 
2 | B1 |  | 13.0 ± 0.9 µM
